Earlier results, collected in patent US20230172202A1, “INSECT AND NON-INSECT ARTHROPOD PEST REPELLENT COMPOSITIONS AND METHODS” (Livful Inc., priority 2021, published 2023).

What was measured:
mosquitos = details: 25% active ingredient (IR3535 in ethanol); human subjects, field
[1] = according to the manufacturer (Merck KGaA)

| ideal pH for IR3535 [1] | Compound | mean complete protection time (mean CPT) (mosquitos) [h] |
| --- | --- | --- |
| 6.0-6.5 | CCCCN(CCC(=O)OCC)C(C)=O [IR3535®, ethyl butylacetylaminopropionate] | 3.0 |
| – | CCN(CC)C(=O)c1cccc(C)c1 [DEET, N,N-diethyl-m-toluamide] | 5.6 |
